The values below come from US10112929B2, “Lactams as inhibitors of rock” (BRISTOL-MYERS SQUIBB COMPANY, priority 2015, dated 2018).

Structures can show the parent of a compound that is named as a salt.
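Note: rho kinase enzyme reaction halted with EDTA, phospho- and non-phospho peptide separated for read-out, kinase activity inhibition derived across a dose-response series, DMSO under 2%.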

T1 sequence (O75116 whole entry, species assumed): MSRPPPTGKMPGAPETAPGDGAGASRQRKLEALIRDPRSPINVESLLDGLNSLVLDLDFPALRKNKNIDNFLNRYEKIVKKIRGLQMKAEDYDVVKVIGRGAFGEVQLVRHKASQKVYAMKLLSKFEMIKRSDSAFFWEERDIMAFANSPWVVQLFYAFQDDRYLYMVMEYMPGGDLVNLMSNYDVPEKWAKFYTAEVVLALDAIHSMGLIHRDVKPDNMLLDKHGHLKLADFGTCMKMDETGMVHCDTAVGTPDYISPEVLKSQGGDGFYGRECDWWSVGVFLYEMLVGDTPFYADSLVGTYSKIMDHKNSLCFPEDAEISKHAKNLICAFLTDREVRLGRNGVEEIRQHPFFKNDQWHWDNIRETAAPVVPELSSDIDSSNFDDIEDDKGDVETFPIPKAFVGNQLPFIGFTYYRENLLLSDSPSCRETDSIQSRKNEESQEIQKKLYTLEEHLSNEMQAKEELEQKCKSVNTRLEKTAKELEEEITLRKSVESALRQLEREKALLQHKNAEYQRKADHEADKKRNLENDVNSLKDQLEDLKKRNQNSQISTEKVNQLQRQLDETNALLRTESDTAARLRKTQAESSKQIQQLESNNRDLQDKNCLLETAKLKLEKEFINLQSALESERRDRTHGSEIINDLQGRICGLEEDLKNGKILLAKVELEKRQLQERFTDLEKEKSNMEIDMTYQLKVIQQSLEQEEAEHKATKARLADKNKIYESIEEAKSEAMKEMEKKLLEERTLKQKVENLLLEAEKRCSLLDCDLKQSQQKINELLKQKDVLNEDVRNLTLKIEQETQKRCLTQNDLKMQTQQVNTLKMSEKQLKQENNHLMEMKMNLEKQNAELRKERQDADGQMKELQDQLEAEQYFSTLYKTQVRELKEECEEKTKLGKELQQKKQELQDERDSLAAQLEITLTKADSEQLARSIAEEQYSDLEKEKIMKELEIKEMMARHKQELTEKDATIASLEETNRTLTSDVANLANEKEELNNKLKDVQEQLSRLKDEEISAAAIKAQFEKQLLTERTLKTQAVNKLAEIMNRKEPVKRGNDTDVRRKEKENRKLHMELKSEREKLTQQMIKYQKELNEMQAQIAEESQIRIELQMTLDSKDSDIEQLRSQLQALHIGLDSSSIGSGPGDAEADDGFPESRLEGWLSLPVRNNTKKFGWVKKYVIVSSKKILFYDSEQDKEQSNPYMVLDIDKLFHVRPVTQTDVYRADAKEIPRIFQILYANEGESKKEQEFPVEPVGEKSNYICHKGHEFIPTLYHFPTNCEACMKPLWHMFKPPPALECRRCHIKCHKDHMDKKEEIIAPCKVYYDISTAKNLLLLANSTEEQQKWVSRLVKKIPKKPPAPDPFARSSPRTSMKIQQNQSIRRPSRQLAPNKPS

One experiment addresses T1, ROCK2 (Homo sapiens (Human), UniProt O75116).
Assay: not given
For `COc1cc(NC2CCN(c3ccc(-c4cn[nH]c4)cc3Cl)C2=O)ccc1F` (single isomer, unassigned) [Example 163, 1-(2-chloro-4-(1H-pyrazol-4-yl)phenyl)-3-((4-fluoro-3-methoxyphenyl)amino) pyrrolidin-2-one], the IC50 is 100 to 2200 nM.

For the compound `CCOc1cc(N2CCC(Nc3cc(OC)ccc3F)C2=O)ccc1-c1cn[nH]c1` (single isomer, unassigned) [Example 41, 1-(3-ethoxy-4-(1H-pyrazol-4-yl)phenyl)-3-((2-fluoro-5-methoxyphenyl)amino)pyrrolidin-2-one], the IC50 fell in the range of 100 to 2200 nM. In the case of `COc1ccc(NC2CCN(c3ccc(-c4cn[nH]c4)c(Cl)c3)C2=O)cc1F` (single isomer, unassigned) [Example 157, 1-(3-chloro-4-(1H-pyrazol-4-yl)phenyl)-3 ((3-fluoro-4-methoxyphenyl)amino) pyrrolidin-2-one], the IC50 lay within 100 to 2200 nM.

For `COc1cccc(NC2CCN(c3ccc(-c4cn[nH]c4)cc3Cl)C2=O)c1` (single isomer, unassigned) [Example 167, 1-(2-chloro-4-(1H-pyrazo1-4-yl)phenyl)-3 ((3-methoxyphenyl)amino)pyrrolidin-2-one], the IC50 lay in the range of 100 to 2200 nM. The same measure, in the same setting: the result for `COc1cccc(NC2CCN(c3ccc(-c4ccnc(N)n4)cc3)C2=O)c1` (single isomer, unassigned) [Example 79, 1-(4-(2-aminopyrimidin-4-yl)phenyl)-3-((3-methoxyphenyl)amino)pyrrolidin-2-one] reads 10 to 100 nM; that for `COc1cc(F)cc(NC2CCN(c3ccc(-c4cn[nH]c4)c(F)c3)C2=O)c1` (single isomer, unassigned) [Example 50, 1-(3-fluoro-4-(1 H-pyrazol-4-yl)phenyl)-3-((3-fluoro-5-methoxyphenyl)amino)pyrrolidin-2-one], < 10 nM.

`COc1cc(F)cc(NC2CCN(c3ccc(-c4cn[nH]c4)c(OC)n3)C2=O)c1` (single isomer, unassigned) [Example 199, 3-((3-fluoro-5-methoxyphenyl)amino)-1-(6-methoxy-5-(1H-pyrazol-4-yl)pyridin-2 yl)pyrrolidin-2-one]: the IC50 is < 10 nM. Same read-out and setting: the result for `COc1ccc(NC2CCN(c3ccc(-c4cn[nH]c4)c(OC)c3)C2=O)c(F)c1` (single isomer, unassigned) [Example 153, 3-((2-fluoro-4-methoxyphenyl)amino)-1-(3-methoxy-4-(1H-pyrazol-4-yl)phenyl) pyrrolidin-2-one] reads 100 to 2200 nM; that for `COc1cc(NC2CCN(c3ccc(-c4cn[nH]c4)cc3)C2=O)cc(OC)c1` (single isomer, unassigned) [Example 22, 1-(4-(1H-pyrazol-4-yl)phenyl)-3-((3,5-dimethoxyphenyl)amino)pyrrolidin-2-one], 100 to 2200 nM.

For the next experiment, the target named is T1, ROCK2. In words: biochemical.
For `COc1ccc(F)c(OC2CCN(c3ccc(-c4cn[nH]c4)cc3)C2=O)c1` (stereo not shown) [Example 111, 1-(4-(1H-pyrazol-4-yl)phenyl)-3-(2-fluoro-5-methoxyphenoxy)pyrrolidin-2-one], the IC50 is 10 to 100 nM.

Consider `O=C1C(Nc2cccc(F)c2)CCN1c1ccc(-c2cn[nH]c2)cc1` (stereo not shown) [Example 62, 1-(4-(1H-pyrazol-4-yl)phenyl)-3-((3-fluorophenyl)amino)pyrrolidin-2-one], for which the IC50 is < 10 nM. The same measure, in the same setting: the result for `COc1ccc(NC2CCN(c3ccc(-c4cn[nH]c4)c(OC)c3)C2=O)cc1F` (single isomer, unassigned) [Example 141, 3-((3-fluoro-4-methoxyphenyl)amino)-1-(3-methoxy-4-(1H-pyrazol-4-yl)phenyl) pyrrolidin-2-one] reads 100 to 2200 nM; that for `COc1cccc(OC2CCN(c3ccc(-c4ccc5cn[nH]c5c4)c(OC)n3)C2=O)c1` (single isomer, unassigned) [Example 124, 1-(5-(1H-indazol-6-yl)-6-methoxypyridin-2-yl)-3-(3-methoxyphenoxy)pyrrolidin-2-one], 100 to 2200 nM; that for `COc1cc(N2CCC(Nc3cccc(F)c3OC)C2=O)ccc1-c1cn[nH]c1` (single isomer, unassigned) [Example 150, 3-((3-fluoro-2-methoxyphenyl)amino)-1-(3-methoxy-4-(1H-pyrazol-4-yl)phenyl) pyrrolidin-2-one], 100 to 2200 nM.

The compound `CCOc1cc(N2CCC(Nc3ccc(F)c(OC)c3)C2=O)ccc1-c1cn[nH]c1` (single isomer, unassigned) [Example 38, 1-(3-ethoxy-4-(1H-pyrazol-4-yl)phenyl)-3-((4-fluoro-3-methoxyphenyl)amino)pyrrolidin-2-one] came in with an IC50 of 10 to 100 nM. Still for that read-out and setting: the result for `O=C1C(Nc2cccc(F)c2)CCN1c1ccc(-c2cn[nH]c2)c(F)c1` (single isomer, unassigned) [Example 47, 1-(3-fluoro-4-(1H-pyrazol-4-yl)phenyl)-3-((3-fluorophenyl)amino)pyrrolidin-2-one] reads < 10 nM; that for `COc1nc(N2CCC(N3CCC(F)CC3)C2=O)ccc1-c1cn[nH]c1` (racemic) [Example 296, 3-(4-fluoropiperidin-1-yl)-1-(6-methoxy-5-(1H-pyrazol-4-yl)pyridin-2-yl)pyrrolidin-2-one hydrochloride], 10 to 100 nM. Same read-out and setting: the result for `COc1nc(N2CCC(N3CCN(c4ccc(O)cc4)CC3)C2=O)ccc1-c1cn[nH]c1` (racemic) [Example 288, 3-(4-(44iydroxyphenyl)piperazin-1-yl)-1-(6-methoxy-5-(1H-pyrazol-4-yl)pyridin-2-yl)pyrrolidin-2-one] reads 100 to 2200 nM. On the same count and under the same terms, the result for `COc1nc(N2CCC(N3CC[C@@H](N(C)C)C3)C2=O)ccc1-c1cn[nH]c1` (mixture of isomers) [Example 293, (3R)-3-(dimethylamino)-1′-(6-methoxy-5-(1H-pyrazol-4-yl)pyridin-2-yl)-[l,3′-bipyrrolidin]-2′-one] reads 100 to 2200 nM; that for `CCOc1cc(N2CCC(Nc3cc(F)cc(OC)c3)C2=O)ccc1-c1cn[nH]c1` (single isomer, unassigned) [Example 37, 1-(3-ethoxy-4-(1H-pyrazol-4-yl)phenyl)-3-((3-fluoro-5-methoxyphenyl)amino)pyrrolidin-2-one], 100 to 2200 nM; that for `CCOc1cccc(NC2CCN(c3ccc(-c4cn[nH]c4)cc3)C2=O)c1` (stereo not shown) [Example 6, 1-(4-(1H-pyrazol-4-yl)phenyl)-3-((3-ethoxyphenyl)amino)pyrrolidin-2-one], < 10 nM.

In turn, `COc1cccc(NC2CCN(c3ccc(-c4cn[nH]c4)c(C#N)c3)C2=O)c1` (single isomer, unassigned) [Example 377, 5-(3-((3-methoxyphenyl)amino)-2-oxopyrrolidin-1-yl)-2-(1H-pyrazol-4-yl)benzonitrile] had an IC50 of 100 to 2200 nM. Turning to `COc1cc(NC2CCN(c3ccc(-c4cn[nH]c4)c(OC)c3)C2=O)cc(OC)c1` (single isomer, unassigned) [Example 139, 3-((3,5-dimethoxyphenyl)amino)-1-(3-methoxy-4-(1H-pyrazol-4-yl)phenyl) pyrrolidin-2-one], the IC50 was in the range of 100 to 2200 nM. With `COc1cc(NC2CCN(c3ccc(-c4cn[nH]c4)cc3)C2=O)ccc1F` (stereo not shown) [Example 4, 1-(4-(1H-pyrazol-4-yl)phenyl)-3-((4-fluoro-3-methoxyphenyl)amino)pyrrolidin-2-one], the IC50 was < 10 nM.

As for `COc1cc(NC2CCN(c3cc(F)c(-c4cn[nH]c4)cc3F)C2=O)ccc1F` (single isomer, unassigned) [Example 350, 1-(2,5-difluoro-4-(1H-pyrazol-4-yl)phenyl)-3-((4-fluoro-3-methoxyphenyl)amino)pyrrolidin-2-one], the IC50 is 100 to 2200 nM. With `COc1cccc(NC2CCN(c3ccc(-c4cn[nH]c4)c(F)c3)C2=O)c1` (single isomer, unassigned) [Example 45, 1-(3-fluoro-4-(1H-pyrazol-4-yl)phenyl)-3-((3-methoxyphenyl)amino)pyrrolidin-2-one], the IC50 is < 10 nM. Same read-out and setting: the result for `CCc1cc(N2CCC(Nc3cccc(OCC4CC4)c3)C2=O)ccc1-c1cn[nH]c1` (single isomer, unassigned) [Example 248, 3-((3-(cyclopropylmethoxy)phenyl)amino)-1-(3-ethyl-4-(1H-pyrazol-4-yl)phenyl)pyrrolidin-2-one] reads 100 to 2200 nM.

The compound `O=C1C(Nc2cccc(OC(F)(F)F)c2)CCN1c1ccc(-c2cn[nH]c2)cc1` (stereo not shown) [Example 8, 1-(4-(1H-pyrazol-4-yl)phenyl)-3-((3-(trifluoromethoxy)phenyl)amino)pyrrolidin-2-one] displayed a 50% inhibitory concentration (IC50) of 10 to 100 nM. The same measure, in the same setting: the result for `O=C1C(Nc2cccc(OCC3CC3)c2)CCN1c1ccc(-c2cn[nH]c2)cn1` (single isomer, unassigned) [Example 320, 1-(5-(1H-pyrazol-4-yl)pyridin-2-yl)-3-((3-(cyclopropylmethoxy)phenyl)amino) pyrrolidin-2-one] reads 100 to 2200 nM; that for `O=C1C(Cc2ccccc2F)CCN1c1ccc(-c2cn[nH]c2)cc1` (stereo not shown) [Example 96, 1-(4-(1H-pyrazol-4-yl)phenyl)-3-(2-fluorobenzyl)pyrrolidin-2-one], 10 to 100 nM; that for `COc1cccc(OC2CCN(c3ccc(-c4ccc5[nH]ncc5c4)c(OC)n3)C2=O)c1` (single isomer, unassigned) [Example 123, 1-(5-(1H-indazol-5-yl)-6-methoxypyridin-2-yl)-3-(3-methoxyphenoxy)pyrrolidin-2-one], 100 to 2200 nM. On the same count and under the same terms, the result for `COc1cccc(NC2CCN(c3ccc(-c4cn[nH]c4)c(C(N)=O)c3)C2=O)c1` (single isomer, unassigned) [Example 130, 5-(3-((3-Methoxyphenyl)amino)-2-oxopyrrolidin-1-yl)-2-(1H-pyrazol-4-yl)benzamide] reads 100 to 2200 nM; that for `O=C1C(Nc2cnccn2)CCN1c1ccc(-c2cn[nH]c2)cc1` (racemic) [Example 226, 1-(4-(1H-pyrazol-4-yl)phenyl)-3-(pyrazin-2-ylamino)pyrrolidin-2-one], 10 to 100 nM. `CCOc1cc(N2CCC(Nc3cc(F)cc(OC)c3)C2=O)ccc1-c1cn[nH]c1` (single isomer, unassigned) [Example 36, 1-(3-ethoxy-4-(1H-pyrazol-4-yl)phenyl)-3-((3-fluoro-5-methoxyphenyl)amino)pyrrolidin-2-one]: the half-maximal inhibitory concentration (IC50) is < 10 nM.
